# Assay: Study on the stability of caspofungin with low solvent residue and hyposaline (storage, then HPLC purity)
# Type: physicochemical
# Settings: for Purity: HPLC purity after storing at −25~−20° C. for 30 days; for Initial purity: HPLC purity before storage; for stability of the samples (degradation by HPLC analysis): stored at −25-20° C. for 30 days
# Procedure: In the present invention, HPLC is used to determine the purity of caspofungin or salts thereof (the compound of formula 1 or salts thereof), and to investigate the stability of sample. Said HPLC is described as follows:
# Chromatographic column: 4.6×250 mm, 5 μm C18 column;
# Mobile phase: A: 0.1% aqueous perchloric acid and 0.075% aqueous sodium chloride; B: acetonitrile;
# Flow rate: 1.0 ml/min; Injection volume: 10 μL;
# Column temperature: 35° C.±5° C.; Detection wavelength: 220 nm; Running time: 60 mins;
# Retention time of major peak: about 27 min;
# The samples prepared in the above example 3, example 4, example 5, example 6, example 7, example 8 and example 9 were stored at −25-20° C. for 30 days. And then HPLC analysis was applied on these samples.
compound,measurement,value
"CCC(C)CC(C)CCCCCCCCC(=O)N[C@H]1C[C@@H](O)[C@@H](NCCN)NC(=O)[C@@H]2[C@@H](O)CCN2C(=O)[C@H]([C@H](O)CCN)NC(=O)[C@H]([C@H](O)[C@@H](O)c2ccc(O)cc2)NC(=O)[C@@H]2C[C@@H](O)CN2C(=O)[C@H]([C@@H](C)O)NC1=O (single isomer, unassigned) [Example 5, caspofungin diacetate]",Purity,99.91%
same,Initial purity,99.91%
same,stability of the samples (degradation by HPLC analysis),no degradation occured
"CCC(C)CC(C)CCCCCCCCC(=O)N[C@H]1C[C@@H](O)[C@@H](NCCN)NC(=O)[C@@H]2[C@@H](O)CCN2C(=O)[C@H]([C@H](O)CCN)NC(=O)[C@H]([C@H](O)[C@@H](O)c2ccc(O)cc2)NC(=O)[C@@H]2C[C@@H](O)CN2C(=O)[C@H]([C@@H](C)O)NC1=O (single isomer, unassigned) [Example 4, caspofungin diacetate]",Purity,99.90%
same,Initial purity,99.90%
same,stability of the samples (degradation by HPLC analysis),no degradation occured
"CCC(C)CC(C)CCCCCCCCC(=O)N[C@H]1C[C@@H](O)[C@@H](NCCN)NC(=O)[C@@H]2[C@@H](O)CCN2C(=O)[C@H]([C@H](O)CCN)NC(=O)[C@H]([C@H](O)[C@@H](O)c2ccc(O)cc2)NC(=O)[C@@H]2C[C@@H](O)CN2C(=O)[C@H]([C@@H](C)O)NC1=O (single isomer, unassigned) [Example 9, caspofungin diacetate]",Purity,99.86%
same,Initial purity,99.86%
same,stability of the samples (degradation by HPLC analysis),no degradation occured
"CCC(C)CC(C)CCCCCCCCC(=O)N[C@H]1C[C@@H](O)[C@@H](NCCN)NC(=O)[C@@H]2[C@@H](O)CCN2C(=O)[C@H]([C@H](O)CCN)NC(=O)[C@H]([C@H](O)[C@@H](O)c2ccc(O)cc2)NC(=O)[C@@H]2C[C@@H](O)CN2C(=O)[C@H]([C@@H](C)O)NC1=O (single isomer, unassigned) [Example 8, caspofungin diacetate]",Purity,99.88%
same,Initial purity,99.88%
same,stability of the samples (degradation by HPLC analysis),no degradation occured
"CCC(C)CC(C)CCCCCCCCC(=O)N[C@H]1C[C@@H](O)[C@@H](NCCN)NC(=O)[C@@H]2[C@@H](O)CCN2C(=O)[C@H]([C@H](O)CCN)NC(=O)[C@H]([C@H](O)[C@@H](O)c2ccc(O)cc2)NC(=O)[C@@H]2C[C@@H](O)CN2C(=O)[C@H]([C@@H](C)O)NC1=O (single isomer, unassigned) [Example 3, caspofungin diacetate]",Purity,99.90%
same,Initial purity,99.90%
same,stability of the samples (degradation by HPLC analysis),no degradation occured
"CCC(C)CC(C)CCCCCCCCC(=O)N[C@H]1C[C@@H](O)[C@@H](NCCN)NC(=O)[C@@H]2[C@@H](O)CCN2C(=O)[C@H]([C@H](O)CCN)NC(=O)[C@H]([C@H](O)[C@@H](O)c2ccc(O)cc2)NC(=O)[C@@H]2C[C@@H](O)CN2C(=O)[C@H]([C@@H](C)O)NC1=O (single isomer, unassigned) [Example 7, caspofungin diacetate]",Purity,99.90%
same,Initial purity,99.90%
same,stability of the samples (degradation by HPLC analysis),no degradation occured
"CCC(C)CC(C)CCCCCCCCC(=O)N[C@H]1C[C@@H](O)[C@@H](NCCN)NC(=O)[C@@H]2[C@@H](O)CCN2C(=O)[C@H]([C@H](O)CCN)NC(=O)[C@H]([C@H](O)[C@@H](O)c2ccc(O)cc2)NC(=O)[C@@H]2C[C@@H](O)CN2C(=O)[C@H]([C@@H](C)O)NC1=O (single isomer, unassigned) [Example 6, caspofungin diacetate]",Purity,99.92%
same,Initial purity,99.92%
same,stability of the samples (degradation by HPLC analysis),no degradation occured

# — US9446091B2, “Caspofungin or salts thereof with high purity, as well as preparation method and use thereof” (Shanghai Techwell Biopharmaceutical Co., Ltd., priority 2011, dated 2016)
